BindingDB's records for patent US20250346592 (Celgene, 2025)

Target: Protein-arginine deiminase type-4 (Homo sapiens, UniProt Q9UM07)
Assay: RFMS2 Assay
Experimental: Final Assay Conditions:Total reaction volume: 25 μlAssay buffer: […] pH 7.4, 200 mM NaCl, 2 mM CaCl2, 5 mM DTT35 nM recombinant human PAD4500 μM TSTGGRQGSHH peptide1.2% DMSOStop solution: 10% formic acidReaction mixtures were incubated at room temperature for 30 minutes. 10 μl each of the reaction mixtures was then mixed with 40 μl of 10% formic acid in a microtiter plate. The plate was frozen at −80° C. before shipping out on dry ice for RapidFire mass spectroscopy analysis.Thawed samples were loaded onto the Rapid Fire 300 system (Agilent) wherein they were first sipped for 250 ms and then loaded onto a Agilent “C” (C18) cartridge using a mobile phase of water containing 0.09% formic acid/0.01% trifluoroacetic acid for 3000 ms desalting flowing at a rate of 1.5 ml/min. Once the samples were loaded and washed, a mobile phase of acetonitrile containing 0.09% formic acid/0.01% trifluoroacetic acid was used to elute the samples directly onto a Sciex API4000 triple quadrupole mass spectrometer for 3000 ms at a flow rate of 1.25 ml/min.

Protein-arginine deiminase type-4, sequence (Q9UM07 whole entry): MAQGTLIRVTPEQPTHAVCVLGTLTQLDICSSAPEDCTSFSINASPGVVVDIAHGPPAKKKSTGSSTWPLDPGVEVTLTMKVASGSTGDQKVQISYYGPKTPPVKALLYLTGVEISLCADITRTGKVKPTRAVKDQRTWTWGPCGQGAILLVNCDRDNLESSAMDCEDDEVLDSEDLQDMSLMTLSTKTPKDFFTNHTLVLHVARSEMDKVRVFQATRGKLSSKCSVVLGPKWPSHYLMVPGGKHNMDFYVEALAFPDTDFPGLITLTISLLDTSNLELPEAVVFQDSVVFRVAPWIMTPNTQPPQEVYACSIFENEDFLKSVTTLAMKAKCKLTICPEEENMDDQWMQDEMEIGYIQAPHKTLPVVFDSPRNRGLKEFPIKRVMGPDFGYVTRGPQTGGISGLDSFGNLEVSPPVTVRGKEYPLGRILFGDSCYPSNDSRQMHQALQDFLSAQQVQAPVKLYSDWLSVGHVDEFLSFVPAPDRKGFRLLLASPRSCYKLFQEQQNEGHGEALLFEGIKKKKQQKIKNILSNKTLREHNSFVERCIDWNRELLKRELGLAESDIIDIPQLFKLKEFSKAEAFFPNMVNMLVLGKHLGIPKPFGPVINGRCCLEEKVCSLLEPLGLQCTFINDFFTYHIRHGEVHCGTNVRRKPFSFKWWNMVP

COc1cccc2cc(-c3nc4cc5c(cc4n3C)CCN(C[C@H](N)CF)C5=O)n(CC(=O)N(C)C)c12 [US20250346592, Example 122]
IC50: > 1000 nM
